Test results taken from paper PMC5562305, “Impact of novel palmitoylated prolactin-releasing peptide analogs on metabolic changes in mice with diet-induced obesity” (PLoS ONE, 2017).
Starred links: 1 amine or outer side, 2 acyl side, 3 side chain; linkers in the order of their positions; H or OH if unused. Residues, ends and D or L forms follow the SMILES beside them. Groups on a side chain read outwards from the residue. *: point of attachment. TTDA(Palmitoyl) = CCCCCCCCCCCCCCCC(=O)NCCCOCCOCCOCCCN*; Suc = O=C(CCC(=O)[*:2])[*:1]

System: urinary metabolites
Experiment: NMR-based metabolomics of urine of DIO mice
Format: in vivo, C57BL/6 mice
Parameters: key to DMA, Mean / DMG, Mean / MA, Mean / TMA, Mean / acetate, Mean / allantoin, Mean / carnitine, Mean / choline, Mean / cis-aconitate, Mean / creatine+creatinine, Mean / creatine, Mean / creatinine, Mean / ethanolamine, Mean / formate, Mean / galactose, Mean / glucose, Mean / glycine, Mean / lactate, Mean / succinate, Mean / vinylacetylglycine, Mean: TSA-normalized intensity of the metabolite's representative NMR signal
Protocol: Urine samples for NMR-based metabolomics were collected prior to the start of the interventions and at the end of the experiment. For overnight urine collection (from 5 pm to 8 am), the mice were housed in individual metabolic cages (Tecniplast, Buguggiate, Italy) without access to food. Samples were collected with the addition of NaN3 and stored at -80°C until NMR analysis.
The urine samples were thawed at room temperature and centrifuged at 13 684 x g for 5 min prior to the NMR experiments. A 200-μl aliquot of supernatant was diluted with 340 μl of H2O mixed with 60 μl of phosphate buffer (1.5 M KH2PO4 in D2O containing 2 mM NaN3 and 0.1% trimethylsilyl propionic acid (TSP), pH 7.4) and transferred to a 5-mm NMR tube. The NMR data were acquired with a 600 MHz Bruker Avance III spectrometer (Bruker BioSpin, Rheinstetten, Germany) equipped with a 5-mm TCI cryogenic probe head. All of the experiments were performed at 300 K. Automatic tuning, matching, shimming and adjusting of the 90° pulse length were performed for each sample.
As mouse urine naturally contains urinary proteins, the NMR spectra were acquired using a Carr-Purcell-Meiboom-Gill (CPMG) pulse sequence with water presaturation (Bruker pulse sequence cpmgpr1d) to eliminate the strong protein background. […] For better metabolite identification, a short J-resolved experiment with presaturation (NS = 2, SW = 16 ppm, TD = 8k, number of increments = 40, SW = 78.125 Hz in the indirect dimension, and relaxation delay = 2 s) was executed for all samples. Additional two-dimensional ^1H-^1H correlation spectroscopy (COSY) and ^1H-^13C heteronuclear multiple-quantum correlation (HMQC) experiments (Bruker pulse sequences cosygpprqf and hmqcphpr) were performed for selected samples.
The acquired data were processed using Topspin 3.2 software (Bruker BioSpin, Rheinstetten, Germany). Line broadening of 0.3 Hz was applied on free induction decays (FIDs) prior to Fourier transformation. The spectra were automatically phased, baseline corrected and referenced to the signal of TSP (0.00 ppm).
The assignment of individual metabolites was achieved by comparing the proton spectra with the spectra of pure metabolites using Chenomx NMR Suite 7.6 (Chenomx Inc., Edmonton, AB, Canada), the HMDB database and previously published metabolomic data. The identification of metabolites was supported through J-resolved and COSY experiments and, if possible, confirmed using carbon chemical shifts extracted from the HMQC spectra.
For quantitation of individual metabolites, the CPMG spectra were uniformly binned in the range of 0.10–10.00 ppm to 0.01-ppm intervals using AMIX software (Bruker BioSpin, Rheinstetten, Germany). This procedure reduced the dimensionality of the data, eliminated chemical shift variations and thus simplified the reproducible automatic quantification. Regions corresponding to water (4.60–4.90 ppm) and urea (5.60–6.00 ppm) were removed prior to analysis. As the dilutions of the original urine samples differed (due to the differences in water intake during urine collection), all of the spectra were normalized to the total spectral area (TSA). For each identified metabolite, one representative signal was chosen and then quantified as the sum of appropriate adjacent 0.01-ppm bins to cover the whole signal width. The metabolite concentration was expressed as the TSA-normalized intensity of the respective signal. For selection of an appropriate statistical method (parametric or non-parametric) the Lilliefors test of normality was performed. […] Metabolite alterations with a P < 0.05 were considered statistically significant. Statistical analysis was performed using Matlab software (“MATLAB version 8.6 (R2015b). Natick, Massachusetts: The MathWorks Inc., 2015.,” n.d.). […]

[1] = urine NMR signal, DIO mice, group mean
[2] = urine of DIO mice, NMR metabolomics, difference of analog mean vs saline mean

## CCCCCCCCCCCCCCCC(=O)NCCCOCCOCCOCCCNC(=O)CCC(=O)NCCCC[C@H](NC(=O)[C@@H](NC(=O)[C@H](CCC(=O)O)NC(=O)[C@H](CCSC)NC(=O)[C@H](CO)NC(=O)[C@H](Cc1c[nH]cn1)NC(=O)[C@H](CCCNC(=N)N)NC(=O)[C@H](Cc1c[nH]cn1)NC(=O)[C@@H](NC(=O)[C@H](CCCNC(=N)N)NC(=O)[C@H](CO)NC(=O)CCC(=O)NCCCOCCOCCOCCCNC(=O)CCCCCCCCCCCCCCC)[C@@H](C)O)[C@@H](C)CC)C(=O)N[C@H](C(=O)N1CCC[C@H]1C(=O)N[C@@H](CC(=O)O)C(=O)N[C@H](C(=O)N[C@@H](CC(N)=O)C(=O)N1CCC[C@H]1C(=O)N[C@@H](C)C(=O)N[C@@H](Cc1c[nH]c2ccccc12)C(=O)N[C@@H](Cc1ccc(O)cc1)C(=O)N[C@@H](C)C(=O)N[C@@H](CO)C(=O)N[C@@H](CCCNC(=N)N)C(=O)NCC(=O)N[C@H](C(=O)N[C@@H](CCCNC(=N)N)C(=O)N1CCC[C@H]1C(=O)N[C@H](C(=O)NCC(=O)N[C@@H](CCCNC(=N)N)C(=O)N[C@@H](Cc1ccccc1)C(N)=O)C(C)C)[C@@H](C)CC)[C@@H](C)CC)[C@@H](C)O [analog 3] ({TTDA(Palmitoyl)-Suc}-SRTHRHSMEIK([Suc-TTDA(Palmitoyl)])TPDINPAWYASRGIRPVGRF-NH2)
[1]
  2-OG (2.45 ppm), Mean: 11.878
  2-OG (3.01 ppm), Mean: 10.469
  2-PY (8.33 ppm), Mean: 1.098
  3-indoxylsulfate (7.51 ppm), Mean: 1.344
  3-indoxylsulfate (7.71 ppm), Mean: 0.810
  4-PY (7.97 ppm), Mean: 2.017
  4-PY (8.55 ppm), Mean: 0.633
  DMA, Mean: 5.618
  DMG, Mean: 1.853
  MA, Mean: 3.016
  MNA (8.90 ppm), Mean: 0.487
  MNA (8.97 ppm), Mean: 0.470
  MNA (9.265 ppm), Mean: 0.490
  MNA-Nox (7.75 ppm), Mean: 0.972
  MNA-Nox (8.13 ppm), Mean: 0.792
  MNA-Nox (8.49 ppm), Mean: 0.511
  MNA-Nox (8.75 ppm), Mean: 0.485
  N-carbamoylalanine (2.38 ppm), Mean: 11.854
  N-carbamoylalanine (3.31 ppm), Mean: 9.499
  N-isovalerylglycine + oxovalerate (0.92 ppm), Mean: 16.056
  TMA, Mean: 11.780
  acetate, Mean: 3.429
  allantoin, Mean: 22.447
  carnitine, Mean: 6.067
  choline, Mean: 1.970
  cis-aconitate, Mean: 8.481
  citrate (2.55 ppm), Mean: 29.434
  citrate (2.69 ppm), Mean: 26.220
  creatine+creatinine, Mean: 24.904
  creatine, Mean: 7.343
  creatinine, Mean: 11.686
  ethanolamine, Mean: 8.370
  formate, Mean: 0.199
  fumarate, Mean: 0.151
  galactose, Mean: 0.578
  glucose, Mean: 3.207
  glycine, Mean: 5.874
  hexanoylglycine + acids (0.88 ppm), Mean: 15.361
  hippurate (7.55 ppm), Mean: 3.987
  hippurate (7.64 ppm), Mean: 2.057
  hippurate (7.84 ppm), Mean: 4.311
  lactate, Mean: 6.853
  multiplet acids (1.6 ppm), Mean: 12.521
  putrescin, Mean: 8.726
  succinate, Mean: 9.267
  taurine (3.27 ppm), Mean: 24.146
  taurine (3.43 ppm), Mean: 20.508
  trigonelline (8.84 ppm), Mean: 0.263
  trigonelline (9.13 ppm), Mean: 0.106
  vinylacetylglycine, Mean: 3.527
[2]
  2-OG (2.45 ppm), Saline/analog %: 0.010%
  2-OG (3.01 ppm), Saline/analog %: 0.022%
  2-PY (8.33 ppm), Saline/analog %: -0.056%
  3-indoxylsulfate (7.51 ppm), Saline/analog %: 0.032%
  3-indoxylsulfate (7.71 ppm), Saline/analog %: 0.052%
  4-PY (7.97 ppm), Saline/analog %: 0.115%
  4-PY (8.55 ppm), Saline/analog %: 0.091%
  DMA, Saline/analog %: 0.119%
  N-carbamoylalanine (2.38 ppm), Saline/analog %: 0.101%
  N-carbamoylalanine (3.31 ppm), Saline/analog %: 0.00116%
  N-isovalerylglycine + oxovalerate (0.92 ppm), Saline/analog %: 0.108%
  TMA, Saline/analog %: -0.031%
  acetate, Saline/analog %: -0.087%
  allantoin, Saline/analog %: 0.112%
  carnitine, Saline/analog %: 0.019%
  choline, Saline/analog %: -0.000203%
  cis-aconitate, Saline/analog %: -0.045%
  citrate (2.55 ppm), Saline/analog %: -0.096%
  citrate (2.69 ppm), Saline/analog %: -0.120%
  creatine+creatinine, Saline/analog %: 0.092%
